Assay results as given in ChEMBL document CHEMBL1138923, “Structure-activity relationships of 1,5-biaryl pyrroles as EP1 receptor antagonists” (Bioorg Med Chem Lett, 2006).

Molecular target: T1, Prostaglandin E2 receptor EP1 subtype (Homo sapiens, UniProt P34995)
T1 sequence (P34995 whole entry): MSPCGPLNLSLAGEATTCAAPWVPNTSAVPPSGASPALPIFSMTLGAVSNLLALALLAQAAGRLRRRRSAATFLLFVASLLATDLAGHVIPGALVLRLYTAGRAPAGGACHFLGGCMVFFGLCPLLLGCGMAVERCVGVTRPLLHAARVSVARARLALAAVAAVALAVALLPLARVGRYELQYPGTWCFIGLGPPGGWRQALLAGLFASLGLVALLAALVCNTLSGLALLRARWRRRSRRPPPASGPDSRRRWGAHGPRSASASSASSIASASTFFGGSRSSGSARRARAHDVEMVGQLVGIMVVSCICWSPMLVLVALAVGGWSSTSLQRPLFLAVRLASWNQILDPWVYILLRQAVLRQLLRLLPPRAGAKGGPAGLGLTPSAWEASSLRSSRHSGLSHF
Experiment: Inhibition of [3H]PGE2 binding to EP1 receptor expressed in CHO cells
Assay type: cell-based
Settings: not given

Row | SMILES | IC50 [nM]
1 | O=C(O)c1cccc(-n2c(-c3cc(Cl)ccc3OCc3ccc(F)cc3F)ccc2C(F)(F)F)c1 | 100
2 | Cc1ccc(-c2cc(Br)ccc2OCC2CCCC2)n1-c1cccc(C(=O)O)c1 | 15.8
3 | Cc1ccc(-c2cc(Br)ccc2OCc2ccc(F)cc2)n1-c1cccc(C(=O)O)c1 | 6.31
4 | Cc1ccccc1COc1ccc(Br)cc1-c1ccc(C)n1-c1cccc(C(=O)O)c1 | 20
5 | Cc1ccc(-c2cc(Br)ccc2OCc2ccc(F)cc2Cl)n1-c1cccc(C(=O)O)c1 | 15.8
6 | Cc1ccc(-c2cc(Br)ccc2OCc2c(F)cccc2C(F)(F)F)n1-c1cccc(C(=O)O)c1 | 100
7 | Cc1ccc(-c2cc(Cl)ccc2OCc2ccc(F)cc2)n1-c1cccc(C(=O)O)c1 | 6.31
8 | Cc1ccc(-c2cc(Br)ccc2OCc2ccc(F)c(F)c2)n1-c1cccc(C(=O)O)c1 | 5.01
9 | Cc1ccc(-c2cc(Br)ccc2OCc2cc(F)ccc2F)n1-c1cccc(C(=O)O)c1 | 7.94
10 | O=C(O)c1cccc(-n2c(-c3cc(Cl)ccc3OCc3ccc(F)cc3)ccc2C(F)(F)F)c1 | 200
11 | Cc1ccc(COc2ccc(Br)cc2-c2ccc(C)n2-c2cccc(C(=O)O)c2)cc1 | 2.51
12 | Cc1cc(COc2ccc(Br)cc2-c2ccc(C)n2-c2cccc(C(=O)O)c2)no1 | 25.1
13 | Cc1c(Cl)cc(-c2cc(Cl)ccc2OCc2ccccc2)n1-c1cccc(C(=O)O)c1 | > 1000
14 | Cc1ccc(-c2cc(Cl)ccc2OCC(C)C)n1-c1cccc(C(=O)O)c1 | 5.01
15 | Cc1ccc(-c2cc(Br)ccc2OCc2cccc(Cl)c2)n1-c1cccc(C(=O)O)c1 | 10
16 | Cc1ccc(-c2cc(Br)ccc2OCc2c(F)cc(F)cc2F)n1-c1cccc(C(=O)O)c1 | 1.58
17 | Cc1c(-c2ccccc2)cc(-c2cc(Cl)ccc2OCc2ccccc2)n1-c1cccc(C(=O)O)c1 | > 1000
18 | Cc1ccc(-c2cc(Br)ccc2OCC2CCCCC2)n1-c1cccc(C(=O)O)c1 | 39.8
19 | Cc1ccc(-c2cc(Br)ccc2OCc2cccc(OC(F)F)c2)n1-c1cccc(C(=O)O)c1 | 79.4
20 | Cc1ccc(-c2cc(Br)ccc2OCc2ccc(Cl)cc2Cl)n1-c1cccc(C(=O)O)c1 | 5.01
21 | Cc1ccc(-c2cc(Cl)ccc2OCc2ccc(F)cc2F)n1-c1cccc(C(=O)O)c1 | 3.98
22 | Cc1ccc(-c2cc(Br)ccc2OCc2c(F)cccc2F)n1-c1cccc(C(=O)O)c1 | 1
23 | Cc1ccc(-c2cc(Br)ccc2OCc2ccc(Cl)cc2)n1-c1cccc(C(=O)O)c1 | 10
24 | Cc1ccc(-c2ccccc2OCc2ccccc2)n1-c1cccc(C(=O)O)c1 | 20
25 | Cc1ccc(-c2cc(Br)ccc2OCc2ccc(C(F)(F)F)cc2F)n1-c1cccc(C(=O)O)c1 | 12.6

Row | SMILES | IC50 [nM]
26 | Cc1ccc(-c2cc(Br)ccc2OCc2ccccc2F)n1-c1cccc(C(=O)O)c1 | 3.16
27 | Cc1noc(C)c1COc1ccc(Br)cc1-c1ccc(C)n1-c1cccc(C(=O)O)c1 | 200
28 | Cc1ccc(-c2cc(Cl)ccc2OCC2CCOCC2)n1-c1cccc(C(=O)O)c1 | 39.8
29 | Cc1ccc(-c2cc(C(F)(F)F)ccc2OCc2ccccc2)n1-c1cccc(C(=O)O)c1 | 5.01
30 | Cc1ccc(-c2cc(S(C)(=O)=O)ccc2OCc2ccccc2)n1-c1cccc(C(=O)O)c1 | 25.1
31 | Cc1ccc(-c2cc(Br)ccc2OCc2cccc(C(F)(F)F)c2)n1-c1cccc(C(=O)O)c1 | 251
32 | COc1ccc(COc2ccc(Br)cc2-c2ccc(C)n2-c2cccc(C(=O)O)c2)cc1 | 50.1
33 | COc1cccc(COc2ccc(Br)cc2-c2ccc(C)n2-c2cccc(C(=O)O)c2)c1 | 50.1
34 | Cc1c(Br)cc(-c2cc(Cl)ccc2OCc2ccccc2)n1-c1cccc(C(=O)O)c1 | 794
35 | Cc1ccc(-c2cc(-c3ccccc3)ccc2OCc2ccccc2)n1-c1cccc(C(=O)O)c1 | 398
36 | O=C(O)c1cccc(-n2c(Cl)ccc2-c2cc(Cl)ccc2OCc2ccccc2)c1 | 25.1
37 | Cc1ccc(-c2cc(Cl)ccc2OCC2CCCCC2)n1-c1cccc(C(=O)O)c1 | 126
38 | Cc1ccc(-c2cc(Br)ccc2OCc2ccc(OC(F)(F)F)cc2)n1-c1cccc(C(=O)O)c1 | 15.8
39 | Cc1ccc(-c2cc(Cl)ccc2OCC2CCCO2)n1-c1cccc(C(=O)O)c1 (configuration not stated) | 39.8
40 | Cc1ccc(-c2cc(Br)ccc2OCC(C)C)n1-c1cccc(C(=O)O)c1 | 5.01
41 | Cc1ccc(-c2cc(C(F)(F)F)ccc2OCC2CCCCC2)n1-c1cccc(C(=O)O)c1 | 31.6
42 | Cc1ccc(-c2cc(Br)ccc2OCc2ccc(Cl)c(Cl)c2)n1-c1cccc(C(=O)O)c1 | 100
43 | Cc1ccc(-c2cc(Br)ccc2OCc2cccc(F)c2F)n1-c1cccc(C(=O)O)c1 | 6.31
44 | CCc1ccc(-c2cc(Cl)ccc2OCc2ccccc2)n1-c1cccc(C(=O)O)c1 | 100
45 | CCc1ccc(-c2cc(Br)ccc2OCc2ccccc2)n1-c1cccc(C(=O)O)c1 | 79.4
46 | Cc1ccc(-c2cc(-c3ccsc3)ccc2OCc2ccccc2)n1-c1cccc(C(=O)O)c1 | 631
47 | Cc1ccc(-c2cc(Br)ccc2OCc2ccc(C(F)(F)F)cc2)n1-c1cccc(C(=O)O)c1 | 39.8
48 | Cc1ccc(-c2cc(Br)ccc2OCc2c(F)cccc2Cl)n1-c1cccc(C(=O)O)c1 | 12.6
49 | Cc1ccc(-c2cc(Br)ccc2OCc2ccccc2Cl)n1-c1cccc(C(=O)O)c1 | 12.6
50 | Cc1ccc(-c2cc(Cl)ccc2OCC2CCCC2)n1-c1cccc(C(=O)O)c1 | 25.1

Tested on: not listed separately
Experiment: Half life in rat at 1 mg/kg, iv
Assay type: ADME, organism-based
Parameters: dose 1 mg/kg, route intravenous
Settings: in vivo

Row | SMILES | half-life [min]
51 | Cc1ccc(-c2cc(Br)ccc2OCc2ccc(F)cc2Cl)n1-c1cccc(C(=O)O)c1 | 18
52 | Cc1ccc(-c2cc(Br)ccc2OCc2ccc(Cl)cc2)n1-c1cccc(C(=O)O)c1 | 12
53 | Cc1c(Br)cc(-c2cc(Cl)ccc2OCc2ccccc2)n1-c1cccc(C(=O)O)c1 | 18
54 | Cc1ccc(-c2cc(Cl)ccc2OCC2CCCCC2)n1-c1cccc(C(=O)O)c1 | 24

Molecular target: Cytochrome P450 2C9 (Homo sapiens, UniProt P11712)
Sequence (P11712 whole entry): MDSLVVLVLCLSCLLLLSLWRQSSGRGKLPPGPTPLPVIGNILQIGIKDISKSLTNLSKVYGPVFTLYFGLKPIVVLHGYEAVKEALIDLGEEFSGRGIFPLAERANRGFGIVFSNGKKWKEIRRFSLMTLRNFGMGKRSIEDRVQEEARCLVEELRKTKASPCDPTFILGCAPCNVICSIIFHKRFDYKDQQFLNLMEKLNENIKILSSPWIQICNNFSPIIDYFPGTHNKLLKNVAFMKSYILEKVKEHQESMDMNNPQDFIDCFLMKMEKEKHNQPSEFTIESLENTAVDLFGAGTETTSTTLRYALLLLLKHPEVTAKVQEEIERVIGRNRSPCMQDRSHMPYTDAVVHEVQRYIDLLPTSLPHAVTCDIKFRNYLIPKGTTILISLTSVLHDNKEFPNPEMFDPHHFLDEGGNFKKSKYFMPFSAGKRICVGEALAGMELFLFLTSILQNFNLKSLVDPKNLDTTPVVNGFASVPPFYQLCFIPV
Experiment: Inhibition of CYP450 2C9
Assay type: ADME
Settings: not given

Row | SMILES | IC50 [nM]
55 | Cc1ccc(-c2cc(Br)ccc2OCc2ccc(F)cc2)n1-c1cccc(C(=O)O)c1 | 3900

Tested on: not listed separately
Experiment: Clearance in rat at 1 mg/kg, iv
Assay type: ADME, organism-based
Parameters: dose 1 mg/kg, route intravenous
Settings: in vivo

Row | SMILES | clearance [mL/min/kg]
56 | Cc1ccc(-c2cc(Br)ccc2OCc2ccc(F)cc2)n1-c1cccc(C(=O)O)c1 | 42
57 | Cc1ccc(-c2cc(Br)ccc2OCc2ccc(F)cc2Cl)n1-c1cccc(C(=O)O)c1 | 48
58 | Cc1ccc(-c2cc(Cl)ccc2OCc2ccc(F)cc2)n1-c1cccc(C(=O)O)c1 | 48
59 | Cc1ccc(-c2cc(Cl)ccc2OCc2ccc(F)cc2F)n1-c1cccc(C(=O)O)c1 | 62
60 | Cc1ccc(-c2cc(Br)ccc2OCc2ccc(Cl)cc2)n1-c1cccc(C(=O)O)c1 | 51
61 | Cc1c(Br)cc(-c2cc(Cl)ccc2OCc2ccccc2)n1-c1cccc(C(=O)O)c1 | 54
62 | Cc1ccc(-c2cc(Cl)ccc2OCC2CCCCC2)n1-c1cccc(C(=O)O)c1 | 28

Tested on: not listed separately
Experiment: Oral bioavailability in rat at 3 mg/kg, po
Assay type: ADME, organism-based
Settings: in vivo

Row | SMILES | bioavailability [%]
63 | Cc1ccc(-c2cc(Br)ccc2OCc2ccc(F)cc2)n1-c1cccc(C(=O)O)c1 | 44

Tested on: not listed separately
Experiment: Volume of distribution in rat at 1 mg/kg, iv
Assay type: ADME, organism-based
Parameters: dose 1 mg/kg, route intravenous
Settings: in vivo, read-out: Vss

Row | SMILES | Vd [L/kg]
64 | Cc1ccc(-c2cc(Br)ccc2OCc2ccc(F)cc2)n1-c1cccc(C(=O)O)c1 | 0.7
65 | Cc1ccc(-c2cc(Br)ccc2OCc2ccc(F)cc2Cl)n1-c1cccc(C(=O)O)c1 | 0.8
66 | Cc1ccc(-c2cc(Cl)ccc2OCc2ccc(F)cc2)n1-c1cccc(C(=O)O)c1 | 0.9
67 | Cc1ccc(-c2cc(Cl)ccc2OCc2ccc(F)cc2F)n1-c1cccc(C(=O)O)c1 | 0.9
68 | Cc1ccc(-c2cc(Br)ccc2OCc2ccc(Cl)cc2)n1-c1cccc(C(=O)O)c1 | 0.8
69 | Cc1c(Br)cc(-c2cc(Cl)ccc2OCc2ccccc2)n1-c1cccc(C(=O)O)c1 | 1
70 | Cc1ccc(-c2cc(Cl)ccc2OCC2CCCCC2)n1-c1cccc(C(=O)O)c1 | 0.5

Species on record: Rattus norvegicus
Experiment: Decrease in weight bearing of left hind paw in rat FCA model of inflammatory pain 1 hr post dose
Assay type: functional
Settings: not given

Row | SMILES | ED50 [mg/kg]
71 | Cc1ccc(-c2cc(Br)ccc2OCc2ccc(F)cc2)n1-c1cccc(C(=O)O)c1 | 9.2

Molecular target: Cytochrome P450 (family) (Homo sapiens, UniProt P04798+P05177+P05181+P08684+P10632+P10635+P11509+P11712+P13584+P20813+P20815+P20853+P24462+P24903+P33260+P33261+P51589+P78329+P98187+Q02928+Q08477+Q16678+Q16696+Q5TCH4+Q6VVX0+Q7Z449+Q8TAV3+Q96SQ9+Q9HB55)
Experiment: Inhibition of CYP450
Assay type: ADME
Settings: not given

Row | SMILES | IC50 [nM]
72 | Cc1ccc(-c2cc(Br)ccc2OCc2ccc(F)cc2)n1-c1cccc(C(=O)O)c1 | ≥ 17000
